In PubChem BioAssay AID248 (DTP/NCI, 2004):
“And” between values parts separate entries of the source, which are not always exact repeats. Equal values may be shown once. Toxic doses and inconclusive results are not listed. No stated cut-off is given here; in the data, active means T/C of 150% or more; inactive means T/C below 125%.

Test system: L1210 leukemia ip in BDF1 mice, survival T/C
Experiment: NCI In Vivo Anticancer Drug Screen. Data for tumor model L1210 Leukemia (intraperitoneal) in B6D2F1 (BDF1) mice
Conditions: endpoint: mean survival time, higher = longer survival
Method in brief: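 Each compound was tested against a transplantable tumor grown in mice. The endpoint was survival, with treated animals benchmarked against vehicle controls as a simple ratio.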

[1] = dose: 100.0 mg/kg/injection, schedule: Q01DX001 (ip), vehicle: carboxymethylcellulose (CMC)
[2] = dose: 200.0 mg/kg/injection, schedule: Q01DX001 (ip), vehicle: carboxymethylcellulose (CMC)
[3] = dose: 400.0 mg/kg/injection, schedule: Q01DX001 (ip), vehicle: carboxymethylcellulose (CMC)
[4] = dose: 75.0 mg/kg/injection, schedule: Q01DX001 (ip), vehicle: saline

Measured: T/C

N#CC(C#N)=Cc1ccc([N+](=O)[O-])o1
inactive: dose: 1.56 mg/kg/injection, schedule: Q04DX003 (ip), vehicle: saline 103 % of control | dose: 3.12 mg/kg/injection, schedule: Q01DX009 (ip), vehicle: Klucel (hydroxypropylcellulose) (HPC) 103 % of control | dose: 3.12 mg/kg/injection, schedule: Q04DX003 (ip), vehicle: saline 92 % of control | dose: 6.25 mg/kg/injection, schedule: Q01DX009 (ip), vehicle: Klucel (hydroxypropylcellulose) (HPC) 104 % of control | dose: 6.25 mg/kg/injection, schedule: Q04DX003 (ip), vehicle: saline 103 % of control

O=CNc1cccc2c1-c1ccccc1C2=O
inactive: [1] 96 % of control | [2] 91 % of control | [3] 99 % of control

Cc1cccc(/C=N\OCc2ccccc2)n1
inactive: dose: 100.0 mg/kg/injection, schedule: Q04DX003 (ip), vehicle: saline with Tween-80 98 % of control | dose: 200.0 mg/kg/injection, schedule: Q04DX003 (ip), vehicle: saline with Tween-80 98 % of control | dose: 400.0 mg/kg/injection, schedule: Q04DX003 (ip), vehicle: saline with Tween-80 98 % of control

CCCCCCCC[n+]1ccc(C#N)cc1
inactive: dose: 18.8 mg/kg/injection, schedule: Q04DX003 (ip), vehicle: saline 97 % of control | dose: 37.5 mg/kg/injection, schedule: Q04DX003 (ip), vehicle: saline 100 % of control | [4] 96 % of control | dose: 75.0 mg/kg/injection, schedule: Q04DX003 (ip), vehicle: saline 100 % of control

N=C(N)c1ncn(C2CCCC2)c1N
inactive: [4] 106 % of control | dose: 150.0 mg/kg/injection, schedule: Q01DX001 (ip), vehicle: saline 105 % of control

O=C1C=C(O)c2[nH]c(=O)ccc2C1=O
inactive: dose: 5.0 mg/kg/injection, schedule: Q01DX001 (ip), vehicle: saline 97 % of control | dose: 10.0 mg/kg/injection, schedule: Q01DX001 (ip), vehicle: saline 101 % of control | dose: 20.0 mg/kg/injection, schedule: Q01DX001 (ip), vehicle: saline 97 % of control | dose: 40.0 mg/kg/injection, schedule: Q01DX001 (ip), vehicle: saline 97 % of control

O=C(O)C1C(c2ccccc2)=C(c2ccccc2)C(c2ccccc2)=C(c2ccccc2)C1C(=O)O (centres undefined)
inactive: dose: 50.0 mg/kg/injection, schedule: Q01DX001 (ip), vehicle: carboxymethylcellulose (CMC) 89 % of control | [1] 92 % of control

O=C(O)C(O)(c1ccccc1)C1CCCCC1 (centres undefined)
inactive: dose: 100.0 mg/kg/injection, schedule: Q04DX002 (ip), vehicle: saline with Tween-80 91 % of control | dose: 200.0 mg/kg/injection, schedule: Q04DX002 (ip), vehicle: saline with Tween-80 105 % of control | dose: 400.0 mg/kg/injection, schedule: Q04DX002 (ip), vehicle: saline with Tween-80 98 % of control

O=C(C#Cc1ccccc1)[O][Sn]([c]1ccccc1)([c]1ccccc1)[c]1ccccc1
inactive: dose: 1.56 mg/kg/injection, schedule: Q01DX009 (ip), vehicle: saline 102 % of control | dose: 3.12 mg/kg/injection, schedule: Q01DX009 (ip), vehicle: saline 94 % of control | dose: 6.25 mg/kg/injection, schedule: Q01DX009 (ip), vehicle: saline 96 % of control and 108 % of control

O=C(NCc1ccccc1)C(Cc1ccccc1)Cc1ccccc1
inactive: [1] 93 % of control | [2] 95 % of control | [3] 98 % of control

COC(=O)CCC(C)C1CCC2C3C(O)CC4CC(OC(C)=O)CCC4(C)C3CC(O)C12C (centres undefined)
inactive: dose: 50.0 mg/kg/injection, schedule: Q01DX009 (ip), vehicle: carboxymethylcellulose (CMC) 102 % of control and 103 % of control | dose: 50.0 mg/kg/injection, schedule: Q04DX003 (ip), vehicle: carboxymethylcellulose (CMC) 95 % of control | dose: 100.0 mg/kg/injection, schedule: Q01DX009 (ip), vehicle: carboxymethylcellulose (CMC) 95 % of control and 98 % of control | dose: 100.0 mg/kg/injection, schedule: Q04DX002 (ip), vehicle: carboxymethylcellulose (CMC) 96 % of control and 101 % of control | dose: 100.0 mg/kg/injection, schedule: Q04DX003 (ip), vehicle: carboxymethylcellulose (CMC) 95 % of control | dose: 200.0 mg/kg/injection, schedule: Q01DX009 (ip), vehicle: carboxymethylcellulose (CMC) 88 % of control and 92 % of control | dose: 200.0 mg/kg/injection, schedule: Q04DX002 (ip), vehicle: carboxymethylcellulose (CMC) 96 % of control and 91 % of control | dose: 200.0 mg/kg/injection, schedule: Q04DX003 (ip), vehicle: carboxymethylcellulose (CMC) 88 % of control | dose: 400.0 mg/kg/injection, schedule: Q04DX002 (ip), vehicle: carboxymethylcellulose (CMC) 86 % of control and 91 % of control

Cc1nc(-c2ccccc2)oc1-c1ccccc1
inactive: dose: 100.0 mg/kg/injection, schedule: Q04DX003 (ip), vehicle: saline 92 % of control | dose: 200.0 mg/kg/injection, schedule: Q04DX003 (ip), vehicle: saline 95 % of control | dose: 400.0 mg/kg/injection, schedule: Q04DX003 (ip), vehicle: saline 92 % of control
